Source: US11382956B2, “Amylin analogues” (Zealand Pharma A/S, priority 2016, dated 2022)
Numbered stars: 1 amine (or outer) side, 2 acyl side, 3 side chain; on linkers, the order of the positions; unused ones are H or OH. Bridge positions count the residues as written; N and C are the ends. Square brackets hold non-standard residues; d marks the D form. Peptide text beside a SMILES is read from it. * marks the point of attachment. C20 diacid = O=C(O)CCCCCCCCCCCCCCCCCCC(=O)*; γGlu = O=C(O)[C@H](CCC(=O)[*:2])N[*:1]; Hyp = O=C(O)[C@@H]1C[C@@H](O)CN1; NMeI = CC[C@H](C)[C@H](NC)C(=O)O; Aad = N[C@@H](CCCC(=O)O)C(=O)O; Orn = NCCC[C@H](N)C(=O)O; Dab = NCC[C@H](N)C(=O)O; Dap = NC[C@H](N)C(=O)O; Sar = CNCC(=O)O

Experiments:
[1] = target: T1, recombinant human amylin 3 receptor (hAMYR3) (Homo sapiens, UniProt O60896+P30988); assay: hAMYR3 cAMP assay (AlphaScreen) in 1321N1 cells; assay type: cell-based; details: cAMP formation, 45 min stimulation
T1 construct: host or cells: human astrocytoma cell line 1321N1
T1 sequence (P30988 25-474): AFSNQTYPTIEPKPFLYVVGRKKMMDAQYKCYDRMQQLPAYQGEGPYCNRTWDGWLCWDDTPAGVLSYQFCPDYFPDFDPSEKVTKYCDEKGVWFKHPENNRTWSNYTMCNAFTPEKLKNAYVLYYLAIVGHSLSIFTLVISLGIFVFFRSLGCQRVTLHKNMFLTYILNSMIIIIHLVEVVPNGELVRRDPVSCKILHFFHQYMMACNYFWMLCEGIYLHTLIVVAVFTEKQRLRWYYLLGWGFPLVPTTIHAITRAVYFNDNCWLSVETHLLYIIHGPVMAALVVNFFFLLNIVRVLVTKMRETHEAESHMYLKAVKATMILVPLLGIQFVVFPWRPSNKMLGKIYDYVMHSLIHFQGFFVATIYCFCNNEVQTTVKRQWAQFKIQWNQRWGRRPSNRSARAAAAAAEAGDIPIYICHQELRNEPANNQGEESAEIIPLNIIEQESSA
T1 sequence (O60896 24-148 partner): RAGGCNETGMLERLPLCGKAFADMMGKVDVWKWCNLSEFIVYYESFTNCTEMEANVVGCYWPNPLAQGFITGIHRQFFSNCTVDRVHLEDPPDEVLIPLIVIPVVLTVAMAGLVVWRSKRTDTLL
Outline: (§1)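 1321N1 astrocytoma cells expressing recombinant human calcitonin receptor alone or with RAMP3 (AMY3) stimulated 45 min at room temperature with peptide in IBMX-containing buffer. cAMP quantified by AlphaScreen after 1 h bead incubation; EC50 fitted from at least 7 concentrations.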

[2] = target: T2, recombinant human calcitonin receptor (hCT-R) (Homo sapiens, UniProt P30988); assay: hCT-R cAMP assay (AlphaScreen) in 1321N1 cells; assay type: cell-based; details: cAMP formation, 45 min stimulation
T2 construct: host or cells: human astrocytoma cell line 1321N1
T2 sequence (P30988 25-474): T1 sequence (P30988 25-474)
Outline: as §1

| Structure (SMILES) | EC50 [1] [µM] | EC50 [2] [µM] |
| --- | --- | --- |
| CC[C@H](C)[C@@H](C(=O)N[C@@H](CC(C)C)C(=O)N[C@@H](CO)C(=O)N[C@@H](CO)C(=O)N[C@H](C(=O)N[C@@H](CCC(=O)O)C(=O)N[C@H](C(=O)NCC(=O)N[C@@H](CO)C(=O)N[C@@H](CC(N)=O)C(=O)N[C@H](C(=O)N1C[C@H](O)C[C@H]1C(N)=O)[C@@H](C)O)C(C)C)[C@@H](C)O)N(C)C(=O)[C@H](C)NC(=O)CN(C)C(=O)[C@H](Cc1ccccc1)NC(=O)[C@H](CO)NC(=O)[C@H](CO)NC(=O)[C@H](CCCNC(=N)N)NC(=O)[C@H](CCC(N)=O)NC(=O)[C@H](CC(C)C)NC(=O)[C@H](Cc1ccccc1)NC(=O)[C@H](Cc1c[nH]cn1)NC(=O)[C@H](C)NC(=O)[C@H](CC(C)C)NC(=O)[C@H](CCCNC(=N)N)NC(=O)[C@H](CCC(=O)O)NC(=O)[C@@H](NC(=O)[C@H](C)NC(=O)[C@@H]1CC(=O)NC[C@H](NC(=O)[C@H](CCCNC(=N)N)NC(=O)CC[C@H](NC(=O)CCCCCCCCCCCCCCCCCCC(=O)O)C(=O)O)C(=O)NCC(=O)N[C@@H]([C@@H](C)O)C(=O)N[C@@H](C)C(=O)N[C@@H]([C@@H](C)O)C(=O)N1)[C@@H](C)O [Compound 45, [19CD]-isoGlu-R-Dap()-GTATD()ATERLAHFLQRSSF-Gly(Me)-A-Ile(Me)-LSSTEVGSNT-Hyp-NH2] ({C20 diacid-γGlu}-R[Dap]GTATDATERLAHFLQRSSF[Sar]A[NMeI]LSSTEVGSNT[Hyp]-NH2; lactam 2-7) | 0.279 | 0.299 |
| CC[C@H](C)[C@@H](C(=O)N[C@@H](CC(C)C)C(=O)N[C@@H](CO)C(=O)N[C@@H](CO)C(=O)N[C@H](C(=O)N[C@@H](CCC(=O)O)C(=O)N[C@H](C(=O)NCC(=O)N[C@@H](CO)C(=O)N[C@@H](CC(N)=O)C(=O)N[C@H](C(=O)N1C[C@H](O)C[C@H]1C(N)=O)[C@@H](C)O)C(C)C)[C@@H](C)O)N(C)C(=O)[C@H](C)NC(=O)CN(C)C(=O)[C@H](Cc1ccccc1)NC(=O)[C@H](CO)NC(=O)[C@H](CO)NC(=O)[C@H](CCCNC(=N)N)NC(=O)[C@H](CCC(N)=O)NC(=O)[C@H](CC(C)C)NC(=O)[C@H](Cc1ccccc1)NC(=O)[C@H](Cc1c[nH]cn1)NC(=O)[C@H](C)NC(=O)[C@H](CC(C)C)NC(=O)[C@H](CCCNC(=N)N)NC(=O)[C@H](CCC(=O)O)NC(=O)[C@@H](NC(=O)[C@H](C)NC(=O)[C@@H]1CC(=O)NCC[C@H](NC(=O)[C@H](CCCNC(=N)N)NC(=O)CC[C@H](NC(=O)CCCCCCCCCCCCCCCCCCC(=O)O)C(=O)O)C(=O)NCC(=O)N[C@@H]([C@@H](C)O)C(=O)N[C@@H](C)C(=O)N[C@@H]([C@@H](C)O)C(=O)N1)[C@@H](C)O [Compound 46, [19CD]-isoGlu-R-Dab()-GTATD()ATERLAHFLQRSSF-Gly(Me)-A-Ile(Me)-LSSTEVGSNT-Hyp-NH2] ({C20 diacid-γGlu}-R[Dab]GTATDATERLAHFLQRSSF[Sar]A[NMeI]LSSTEVGSNT[Hyp]-NH2; lactam 2-7) | 0.0055 | 0.0075 |
| CC[C@H](C)[C@@H](C(=O)N[C@@H](CC(C)C)C(=O)N[C@@H](CO)C(=O)N[C@@H](CO)C(=O)N[C@H](C(=O)N[C@@H](CCC(=O)O)C(=O)N[C@H](C(=O)NCC(=O)N[C@@H](CO)C(=O)N[C@@H](CC(N)=O)C(=O)N[C@H](C(=O)N1C[C@H](O)C[C@H]1C(N)=O)[C@@H](C)O)C(C)C)[C@@H](C)O)N(C)C(=O)[C@H](C)NC(=O)CN(C)C(=O)[C@H](Cc1ccccc1)NC(=O)[C@H](CO)NC(=O)[C@H](CO)NC(=O)[C@H](CCCNC(=N)N)NC(=O)[C@H](CCC(N)=O)NC(=O)[C@H](CC(C)C)NC(=O)[C@H](Cc1ccccc1)NC(=O)[C@H](Cc1c[nH]cn1)NC(=O)[C@H](C)NC(=O)[C@H](CC(C)C)NC(=O)[C@H](CCCNC(=N)N)NC(=O)[C@H](CCC(=O)O)NC(=O)[C@@H](NC(=O)[C@H](C)NC(=O)[C@@H]1CC(=O)NCCC[C@H](NC(=O)[C@H](CCCNC(=N)N)NC(=O)CC[C@H](NC(=O)CCCCCCCCCCCCCCCCCCC(=O)O)C(=O)O)C(=O)NCC(=O)N[C@@H]([C@@H](C)O)C(=O)N[C@@H](C)C(=O)N[C@@H]([C@@H](C)O)C(=O)N1)[C@@H](C)O [Compound 47, [19CD]-isoGlu-R-Orn()-GTATD()ATERLAHFLQRSSF-Gly(Me)-A-Ile(Me)-LSSTEVGSNT-Hyp-NH2] ({C20 diacid-γGlu}-R[Orn]GTATDATERLAHFLQRSSF[Sar]A[NMeI]LSSTEVGSNT[Hyp]-NH2; lactam 2-7) | 0.0077 | 0.0108 |
| CC[C@H](C)[C@@H](C(=O)N[C@@H](CC(C)C)C(=O)N[C@@H](CO)C(=O)N[C@@H](CO)C(=O)N[C@H](C(=O)N[C@@H](CCC(=O)O)C(=O)N[C@H](C(=O)NCC(=O)N[C@@H](CO)C(=O)N[C@@H](CC(N)=O)C(=O)N[C@H](C(=O)N1C[C@H](O)C[C@H]1C(N)=O)[C@@H](C)O)C(C)C)[C@@H](C)O)N(C)C(=O)[C@H](C)NC(=O)CN(C)C(=O)[C@H](Cc1ccccc1)NC(=O)[C@H](CO)NC(=O)[C@H](CO)NC(=O)[C@H](CCCNC(=N)N)NC(=O)[C@H](CCC(N)=O)NC(=O)[C@H](CC(C)C)NC(=O)[C@H](Cc1ccccc1)NC(=O)[C@H](Cc1c[nH]cn1)NC(=O)[C@H](C)NC(=O)[C@H](CC(C)C)NC(=O)[C@H](CCCNC(=N)N)NC(=O)[C@H](CCC(=O)O)NC(=O)[C@@H](NC(=O)[C@H](C)NC(=O)[C@@H]1CNC(=O)CCC[C@H](NC(=O)[C@H](CCCNC(=N)N)NC(=O)CC[C@H](NC(=O)CCCCCCCCCCCCCCCCCCC(=O)O)C(=O)O)C(=O)NCC(=O)N[C@@H]([C@@H](C)O)C(=O)N[C@@H](C)C(=O)N[C@@H]([C@@H](C)O)C(=O)N1)[C@@H](C)O [Compound 50, [19CD]-isoGlu-R-Aad()-GTAT-Dap()-ATERLAHFLQRSSF-Gly(Me)-A-Ile(Me)-LSSTEVGSNT-Hyp-NH2] ({C20 diacid-γGlu}-R[Aad]GTAT[Dap]ATERLAHFLQRSSF[Sar]A[NMeI]LSSTEVGSNT[Hyp]-NH2; lactam 2-7) | 0.0015 | 0.0033 |
| CC[C@H](C)[C@@H](C(=O)N1CCC[C@H]1C(=O)N[C@@H](CO)C(=O)N[C@@H](CO)C(=O)N[C@H](C(=O)N[C@@H](CCC(=O)O)C(=O)N[C@H](C(=O)NCC(=O)N[C@@H](CO)C(=O)N[C@@H](CC(N)=O)C(=O)N[C@H](C(=O)N1C[C@H](O)C[C@H]1C(N)=O)[C@@H](C)O)C(C)C)[C@@H](C)O)N(C)C(=O)[C@H](C)NC(=O)CN(C)C(=O)[C@H](Cc1ccccc1)NC(=O)[C@H](CO)NC(=O)[C@H](CO)NC(=O)[C@H](CCCNC(=N)N)NC(=O)[C@H](CCC(N)=O)NC(=O)[C@H](CC(C)C)NC(=O)[C@H](Cc1ccccc1)NC(=O)[C@H](Cc1c[nH]cn1)NC(=O)[C@H](C)NC(=O)[C@H](CC(C)C)NC(=O)[C@H](CCCNC(=N)N)NC(=O)[C@H](CCC(=O)O)NC(=O)[C@@H](NC(=O)[C@H](C)NC(=O)[C@H](CCCN)NC(=O)[C@@H](NC(=O)[C@H](C)NC(=O)[C@@H](NC(=O)CNC(=O)[C@H](CC(=O)O)NC(=O)[C@H](CCCNC(=N)N)NC(=O)CC[C@H](NC(=O)CCCCCCCCCCCCCCCCCCC(=O)O)C(=O)O)[C@@H](C)O)[C@@H](C)O)[C@@H](C)O [Ref. 1, [19CD]-isoGlu-RDGTAT-Orn-ATERLAHFLQRSSF-Sar-A-Ile(Me)-PSSTEVGSNT-Hyp-NH2, reference compound] ({C20 diacid-γGlu}-RDGTAT[Orn]ATERLAHFLQRSSF[Sar]A[NMeI]PSSTEVGSNT[Hyp]-NH2) | 0.0171 | 0.0203 |
| CC[C@H](C)[C@@H](C(=O)N[C@@H](CC(C)C)C(=O)N[C@@H](CO)C(=O)N[C@@H](CO)C(=O)N[C@H](C(=O)N[C@@H](CCC(=O)O)C(=O)N[C@H](C(=O)NCC(=O)N[C@@H](CO)C(=O)N[C@@H](CC(N)=O)C(=O)N[C@H](C(=O)N1C[C@H](O)C[C@H]1C(N)=O)[C@@H](C)O)C(C)C)[C@@H](C)O)N(C)C(=O)[C@H](C)NC(=O)CN(C)C(=O)[C@H](Cc1ccccc1)NC(=O)[C@H](CO)NC(=O)[C@H](CO)NC(=O)[C@H](CCCNC(=N)N)NC(=O)[C@H](CCC(N)=O)NC(=O)[C@H](CC(C)C)NC(=O)[C@H](Cc1ccccc1)NC(=O)[C@H](CCCC(=O)O)NC(=O)[C@H](C)NC(=O)[C@H](CC(C)C)NC(=O)[C@H](CCCNC(=N)N)NC(=O)[C@H](CCC(=O)O)NC(=O)[C@@H](NC(=O)[C@H](C)NC(=O)[C@H](CCCN)NC(=O)[C@@H](NC(=O)[C@H](C)NC(=O)[C@@H](NC(=O)CNC(=O)[C@H](CC(=O)O)NC(=O)[C@H](CCCNC(=N)N)NC(=O)CC[C@H](NC(=O)CCCCCCCCCCCCCCCCCCC(=O)O)C(=O)O)[C@@H](C)O)[C@@H](C)O)[C@@H](C)O [Ref. 3, [19CD]-isoGlu-RDGTAT-Orn-ATERLA-Aad-FLQRSSF-Sar-A-Ile(Me)-LSSTEVGSNT-Hyp-NH2, reference compound] ({C20 diacid-γGlu}-RDGTAT[Orn]ATERLA[Aad]FLQRSSF[Sar]A[NMeI]LSSTEVGSNT[Hyp]-NH2) | 0.0132 | 0.0182 |
